ChEMBL document CHEMBL1149126, “3-phenyl-6-(2-pyridyl)methyloxy-1,2,4-triazolo[3,4-a]phthalazines and analogues: high-affinity gamma-aminobutyric acid-A benzodiazepine receptor ligands with alpha 2, alpha 3, and alpha 5-subtype binding selectivity over alpha 1” (J Med Chem, 2004)

target: T1, GABA-A receptor; alpha-1/beta-3/gamma-2 (Homo sapiens, UniProt P14867+P18507+P28472); assay: Binding affinity for human GABA-A receptor alpha-1-beta-3-gamma-2 subunits in L(tk-) cells
T1 sequence (P14867 whole entry): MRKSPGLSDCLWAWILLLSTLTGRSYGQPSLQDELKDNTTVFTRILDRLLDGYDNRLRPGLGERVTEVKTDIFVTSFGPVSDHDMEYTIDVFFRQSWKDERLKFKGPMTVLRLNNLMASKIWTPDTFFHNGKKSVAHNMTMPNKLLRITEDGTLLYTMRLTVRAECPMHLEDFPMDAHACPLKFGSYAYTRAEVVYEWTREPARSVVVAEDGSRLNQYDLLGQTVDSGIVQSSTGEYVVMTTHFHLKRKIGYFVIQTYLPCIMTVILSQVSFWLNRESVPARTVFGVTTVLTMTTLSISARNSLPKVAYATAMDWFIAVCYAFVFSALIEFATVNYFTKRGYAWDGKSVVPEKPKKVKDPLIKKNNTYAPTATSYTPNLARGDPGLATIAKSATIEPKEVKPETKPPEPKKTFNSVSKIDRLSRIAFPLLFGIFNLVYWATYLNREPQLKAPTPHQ
T1 sequence (P18507 whole entry): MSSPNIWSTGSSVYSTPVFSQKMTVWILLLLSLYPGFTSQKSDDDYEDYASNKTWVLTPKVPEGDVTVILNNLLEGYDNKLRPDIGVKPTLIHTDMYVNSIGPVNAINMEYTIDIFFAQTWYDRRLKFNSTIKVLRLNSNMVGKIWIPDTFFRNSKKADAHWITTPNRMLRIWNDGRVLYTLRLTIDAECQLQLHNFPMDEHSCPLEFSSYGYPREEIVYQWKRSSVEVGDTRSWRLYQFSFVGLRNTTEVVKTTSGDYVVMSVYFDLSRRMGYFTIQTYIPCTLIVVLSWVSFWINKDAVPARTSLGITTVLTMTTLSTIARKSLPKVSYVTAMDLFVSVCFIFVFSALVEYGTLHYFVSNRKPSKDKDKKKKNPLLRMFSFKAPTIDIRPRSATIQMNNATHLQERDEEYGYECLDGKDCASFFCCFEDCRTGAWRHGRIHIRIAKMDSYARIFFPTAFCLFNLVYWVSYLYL
T1 sequence (P28472 whole entry): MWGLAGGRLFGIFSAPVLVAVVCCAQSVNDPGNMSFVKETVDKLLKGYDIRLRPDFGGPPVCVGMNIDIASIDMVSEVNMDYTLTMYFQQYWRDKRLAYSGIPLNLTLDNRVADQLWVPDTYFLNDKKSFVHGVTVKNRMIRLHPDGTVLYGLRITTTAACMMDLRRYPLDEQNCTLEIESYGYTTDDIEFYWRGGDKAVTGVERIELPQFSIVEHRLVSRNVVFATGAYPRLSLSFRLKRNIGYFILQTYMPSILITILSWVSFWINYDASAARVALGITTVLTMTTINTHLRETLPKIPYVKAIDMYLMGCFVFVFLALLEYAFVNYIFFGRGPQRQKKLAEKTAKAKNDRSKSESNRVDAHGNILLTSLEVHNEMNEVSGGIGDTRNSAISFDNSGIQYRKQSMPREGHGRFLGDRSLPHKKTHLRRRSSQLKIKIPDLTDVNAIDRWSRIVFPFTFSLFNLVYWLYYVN

Row | Ki | SMILES
1 | 250 nM | c1ccc(-c2nnc3c4ccccc4c(OCc4ccco4)nn23)cc1
2 | 24 nM | c1ccc(-c2nnc3c4ccccc4c(OCc4ccncc4)nn23)cc1
3 | 200 nM | COc1ccc(COc2nn3c(-c4ccccc4)nnc3c3ccccc23)cc1
4 | > 1000 nM | Clc1cccc(COc2nn3c(-c4ccccc4)nnc3c3ccccc23)c1
5 | 2 nM | c1ccc(-c2nnc3c4ccccc4c(OCc4cnccn4)nn23)cc1
6 | 240 nM | c1ccc(-c2nnc3c4ccccc4c(OCc4cccs4)nn23)cc1

Second part, the compound before the results:

Row | SMILES | Ki
7 | Cc1cccnc1COc1nn2c(-c3ccccc3)nnc2c2ccccc12 | 2.4 nM
8 | Cn1ccnc1COc1nn2c(-c3ccccc3)nnc2c2ccccc12 | 0.51 nM
9 | CCOC(=O)c1ncn2c1[C@@H]1CCCN1C(=O)c1cc(OC)ccc1-2 | 44 nM
10 | Clc1ccccc1COc1nn2c(-c3ccccc3)nnc2c2ccccc12 | > 1000 nM
11 | CCc1nnc2c3ccccc3c(OCc3ccccn3)nn12 | 250 nM
12 | c1ccc(-c2nnc3c4ccccc4c(OCC4CCNCC4)nn23)cc1 | 32 nM
13 | c1ccc(-c2nnc3c4ccccc4c(OCCc4ccccn4)nn23)cc1 | 18 nM
14 | Cc1ccnc(COc2nn3c(-c4ccccc4)nnc3c3ccccc23)c1 | 18 nM
15 | Cc1ccc(COc2nn3c(-c4ccccc4)nnc3c3ccccc23)nc1 | 4.8 nM
16 | CN(C)Cc1nnc2c3ccccc3c(OCc3ccccn3)nn12 | 140 nM
17 | COc1ccccc1COc1nn2c(-c3ccccc3)nnc2c2ccccc12 | > 1000 nM
18 | c1ccc(CCOc2nn3c(-c4ccccc4)nnc3c3ccccc23)cc1 | 380 nM

target: T2, GABA-A receptor; alpha-5/beta-3/gamma-2 (Homo sapiens, UniProt P18507+P28472+P31644); assay: Binding affinity for human GABA-A receptor alpha-5-beta-3-gamma-2 subunits in L(tk-) cells; format: cell-based
T2 sequence (P18507 whole entry): T1 sequence (P18507 whole entry)
T2 sequence (P28472 whole entry): T1 sequence (P28472 whole entry)
T2 sequence (P31644 whole entry): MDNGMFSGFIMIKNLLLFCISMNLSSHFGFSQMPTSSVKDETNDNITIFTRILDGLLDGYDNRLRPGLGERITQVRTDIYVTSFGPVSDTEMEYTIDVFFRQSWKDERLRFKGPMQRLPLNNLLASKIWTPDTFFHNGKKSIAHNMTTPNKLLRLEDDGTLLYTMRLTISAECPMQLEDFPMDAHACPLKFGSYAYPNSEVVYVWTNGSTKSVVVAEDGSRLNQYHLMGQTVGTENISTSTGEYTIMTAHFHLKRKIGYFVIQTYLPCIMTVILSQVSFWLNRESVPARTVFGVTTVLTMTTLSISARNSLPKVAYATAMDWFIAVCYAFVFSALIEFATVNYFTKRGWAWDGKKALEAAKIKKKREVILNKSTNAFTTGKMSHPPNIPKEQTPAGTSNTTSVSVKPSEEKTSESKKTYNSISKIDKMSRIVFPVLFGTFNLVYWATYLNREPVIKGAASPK

Row | Ki | SMILES
19 | 74 nM | c1ccc(-c2nnc3c4ccccc4c(OCc4ccco4)nn23)cc1
20 | 6.1 nM | c1ccc(-c2nnc3c4ccccc4c(OCc4ccncc4)nn23)cc1
21 | 160 nM | COc1ccc(COc2nn3c(-c4ccccc4)nnc3c3ccccc23)cc1
22 | > 1000 nM | Clc1cccc(COc2nn3c(-c4ccccc4)nnc3c3ccccc23)c1
23 | 0.36 nM | c1ccc(-c2nnc3c4ccccc4c(OCc4cnccn4)nn23)cc1
24 | 170 nM | c1ccc(-c2nnc3c4ccccc4c(OCc4cccs4)nn23)cc1

Second part, the compound before the results:

Row | SMILES | Ki
25 | Cc1cccnc1COc1nn2c(-c3ccccc3)nnc2c2ccccc12 | 0.88 nM
26 | Cn1ccnc1COc1nn2c(-c3ccccc3)nnc2c2ccccc12 | 0.17 nM
27 | CCOC(=O)c1ncn2c1[C@@H]1CCCN1C(=O)c1cc(OC)ccc1-2 | 0.4 nM
28 | Clc1ccccc1COc1nn2c(-c3ccccc3)nnc2c2ccccc12 | 560 nM
29 | CCc1nnc2c3ccccc3c(OCc3ccccn3)nn12 | 16 nM
30 | c1ccc(-c2nnc3c4ccccc4c(OCC4CCNCC4)nn23)cc1 | 30 nM
31 | c1ccc(-c2nnc3c4ccccc4c(OCCc4ccccn4)nn23)cc1 | 15 nM
32 | Cc1ccnc(COc2nn3c(-c4ccccc4)nnc3c3ccccc23)c1 | 3.7 nM
33 | Cc1ccc(COc2nn3c(-c4ccccc4)nnc3c3ccccc23)nc1 | 1.1 nM
34 | CN(C)Cc1nnc2c3ccccc3c(OCc3ccccn3)nn12 | 160 nM
35 | COc1ccccc1COc1nn2c(-c3ccccc3)nnc2c2ccccc12 | > 1000 nM
36 | c1ccc(CCOc2nn3c(-c4ccccc4)nnc3c3ccccc23)cc1 | > 1000 nM

target: T3, GABA-A receptor; alpha-3/beta-3/gamma-2 (Homo sapiens, UniProt P18507+P28472+P34903); assay: Binding affinity for human GABA-A receptor alpha-3-beta-3-gamma-2 subunits in L(tk-) cells; format: cell-based
T3 sequence (P18507 whole entry): T1 sequence (P18507 whole entry)
T3 sequence (P28472 whole entry): T1 sequence (P28472 whole entry)
T3 sequence (P34903 whole entry): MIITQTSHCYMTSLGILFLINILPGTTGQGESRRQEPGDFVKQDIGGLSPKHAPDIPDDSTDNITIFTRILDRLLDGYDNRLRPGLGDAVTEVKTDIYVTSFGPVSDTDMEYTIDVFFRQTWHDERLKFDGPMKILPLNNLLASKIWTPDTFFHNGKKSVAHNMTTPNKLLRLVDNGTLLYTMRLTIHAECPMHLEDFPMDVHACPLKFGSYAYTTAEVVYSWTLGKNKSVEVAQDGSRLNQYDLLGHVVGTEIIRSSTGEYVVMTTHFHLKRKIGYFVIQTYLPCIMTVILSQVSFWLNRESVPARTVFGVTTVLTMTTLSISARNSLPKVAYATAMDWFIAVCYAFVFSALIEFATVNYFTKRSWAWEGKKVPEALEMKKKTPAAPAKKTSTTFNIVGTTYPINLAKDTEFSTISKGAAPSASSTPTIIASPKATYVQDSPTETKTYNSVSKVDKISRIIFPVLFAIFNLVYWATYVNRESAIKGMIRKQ

Row | Ki | SMILES
37 | 180 nM | c1ccc(-c2nnc3c4ccccc4c(OCc4ccco4)nn23)cc1
38 | 7.7 nM | c1ccc(-c2nnc3c4ccccc4c(OCc4ccncc4)nn23)cc1
39 | 190 nM | COc1ccc(COc2nn3c(-c4ccccc4)nnc3c3ccccc23)cc1
40 | > 1000 nM | Clc1cccc(COc2nn3c(-c4ccccc4)nnc3c3ccccc23)c1
41 | 0.71 nM | c1ccc(-c2nnc3c4ccccc4c(OCc4cnccn4)nn23)cc1
42 | 300 nM | c1ccc(-c2nnc3c4ccccc4c(OCc4cccs4)nn23)cc1

More lines, now with the values behind:

Row | SMILES | Ki
43 | Cc1cccnc1COc1nn2c(-c3ccccc3)nnc2c2ccccc12 | 1 nM
44 | Cn1ccnc1COc1nn2c(-c3ccccc3)nnc2c2ccccc12 | 0.22 nM
45 | CCOC(=O)c1ncn2c1[C@@H]1CCCN1C(=O)c1cc(OC)ccc1-2 | 11 nM
46 | Clc1ccccc1COc1nn2c(-c3ccccc3)nnc2c2ccccc12 | 260 nM
47 | CCc1nnc2c3ccccc3c(OCc3ccccn3)nn12 | 53 nM
48 | c1ccc(-c2nnc3c4ccccc4c(OCC4CCNCC4)nn23)cc1 | 37 nM
49 | c1ccc(-c2nnc3c4ccccc4c(OCCc4ccccn4)nn23)cc1 | 17 nM
50 | Cc1ccnc(COc2nn3c(-c4ccccc4)nnc3c3ccccc23)c1 | 10 nM
51 | Cc1ccc(COc2nn3c(-c4ccccc4)nnc3c3ccccc23)nc1 | 4.3 nM
52 | CN(C)Cc1nnc2c3ccccc3c(OCc3ccccn3)nn12 | 840 nM
53 | COc1ccccc1COc1nn2c(-c3ccccc3)nnc2c2ccccc12 | > 1000 nM
54 | c1ccc(CCOc2nn3c(-c4ccccc4)nnc3c3ccccc23)cc1 | 720 nM

target: T4, GABA-A receptor; alpha-2/beta-3/gamma-2 (Homo sapiens, UniProt P18507+P28472+P47869); assay: Binding affinity for human GABA-A receptor alpha-2-beta-3-gamma-2 subunits in L(tk-) cells; format: cell-based
T4 sequence (P18507 whole entry): T1 sequence (P18507 whole entry)
T4 sequence (P28472 whole entry): T1 sequence (P28472 whole entry)
T4 sequence (P47869 whole entry): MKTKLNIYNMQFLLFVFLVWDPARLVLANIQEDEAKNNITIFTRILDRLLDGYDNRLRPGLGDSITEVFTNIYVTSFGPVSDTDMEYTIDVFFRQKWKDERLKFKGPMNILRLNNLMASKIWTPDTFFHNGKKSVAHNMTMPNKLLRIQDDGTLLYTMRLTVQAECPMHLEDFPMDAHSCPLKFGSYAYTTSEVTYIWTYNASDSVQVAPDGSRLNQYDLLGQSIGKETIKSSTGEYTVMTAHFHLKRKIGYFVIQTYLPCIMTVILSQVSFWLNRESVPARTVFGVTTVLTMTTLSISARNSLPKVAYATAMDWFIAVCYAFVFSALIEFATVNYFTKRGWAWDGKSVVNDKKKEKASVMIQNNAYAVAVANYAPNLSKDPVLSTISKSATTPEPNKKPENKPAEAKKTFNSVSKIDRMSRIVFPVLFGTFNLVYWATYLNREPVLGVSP

Row | Ki | SMILES
55 | 270 nM | c1ccc(-c2nnc3c4ccccc4c(OCc4ccco4)nn23)cc1
56 | 11 nM | c1ccc(-c2nnc3c4ccccc4c(OCc4ccncc4)nn23)cc1
57 | 220 nM | COc1ccc(COc2nn3c(-c4ccccc4)nnc3c3ccccc23)cc1
58 | > 1000 nM | Clc1cccc(COc2nn3c(-c4ccccc4)nnc3c3ccccc23)c1
59 | 1.6 nM | c1ccc(-c2nnc3c4ccccc4c(OCc4cnccn4)nn23)cc1
60 | 560 nM | c1ccc(-c2nnc3c4ccccc4c(OCc4cccs4)nn23)cc1

More lines, now with the values behind:

Row | SMILES | Ki
61 | Cc1cccnc1COc1nn2c(-c3ccccc3)nnc2c2ccccc12 | 2.3 nM
62 | Cn1ccnc1COc1nn2c(-c3ccccc3)nnc2c2ccccc12 | 0.7 nM
63 | CCOC(=O)c1ncn2c1[C@@H]1CCCN1C(=O)c1cc(OC)ccc1-2 | 22 nM
64 | Clc1ccccc1COc1nn2c(-c3ccccc3)nnc2c2ccccc12 | 580 nM
65 | CCc1nnc2c3ccccc3c(OCc3ccccn3)nn12 | 130 nM
66 | c1ccc(-c2nnc3c4ccccc4c(OCC4CCNCC4)nn23)cc1 | 40 nM
67 | c1ccc(-c2nnc3c4ccccc4c(OCCc4ccccn4)nn23)cc1 | 25 nM
68 | Cc1ccnc(COc2nn3c(-c4ccccc4)nnc3c3ccccc23)c1 | 11 nM
69 | Cc1ccc(COc2nn3c(-c4ccccc4)nnc3c3ccccc23)nc1 | 3.6 nM
70 | CN(C)Cc1nnc2c3ccccc3c(OCc3ccccn3)nn12 | 620 nM
71 | COc1ccccc1COc1nn2c(-c3ccccc3)nnc2c2ccccc12 | > 1000 nM
72 | c1ccc(CCOc2nn3c(-c4ccccc4)nnc3c3ccccc23)cc1 | > 1000 nM
